Data as given in PubChem BioAssay (NCI).
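A five-concentration, 48-hour dose response in 96-well plates underlies each endpoint, interpolated linearly between surrounding concentrations. GI50: concentration for 50% inhibition of growth. TGI: total growth inhibition.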

Legend:
Assay in all cases: growth of human tumour cells (NCI), 48 h
HCT-15 colon = tested on: HCT-15 colon
HT29 colon = tested on: HT29 colon
M14 melanoma = tested on: M14 melanoma
NCI-H23 lung = tested on: NCI-H23 lung
OVCAR-3 ovarian = tested on: OVCAR-3 ovarian
OVCAR-5 ovarian = tested on: OVCAR-5 ovarian
PC-3 prostate = tested on: PC-3 prostate
SN12C renal = tested on: SN12C renal
SNB-19 CNS = tested on: SNB-19 CNS
UO-31 renal = tested on: UO-31 renal

Structure (SMILES) | GI50 (HCT-15 colon) | TGI (HCT-15 colon) | GI50 (HT29 colon) | TGI (HT29 colon) | GI50 (M14 melanoma) | TGI (M14 melanoma) | GI50 (NCI-H23 lung) | TGI (NCI-H23 lung) | GI50 (OVCAR-3 ovarian) | TGI (OVCAR-3 ovarian) | GI50 (OVCAR-5 ovarian) | TGI (OVCAR-5 ovarian) | GI50 (PC-3 prostate) | TGI (PC-3 prostate) | GI50 (SN12C renal) | TGI (SN12C renal) | GI50 (SNB-19 CNS) | TGI (SNB-19 CNS) | GI50 (UO-31 renal) | TGI (UO-31 renal)
CCN(CC)CCOc1ccc2c(-c3ccccc3)c(-c3ccc(OC)cc3)c(=O)oc2c1 | 2.64 µM | 8.18 µM | 3 µM | 11.4 µM | 1.94 µM | 3.66 µM | 4.11 µM | 16.5 µM | 4.32 µM | 16.5 µM | 12 µM | 24.9 µM | 4.19 µM | 18.3 µM | 10.8 µM | 23.9 µM | 10.2 µM | 22.2 µM | 1.65 µM | 5.55 µM
CC(C)(Oc1cccc(N2CCC[C@@H](C(=O)N(Cc3ccc(-c4cn[nH]c4)cc3)C3CC3)C2)c1)C(=O)N1CCNCC1 | 14.6 µM | 28.9 µM | 6.3 µM | 19.7 µM | 14.9 µM | 30.1 µM | 14 µM | 28.9 µM | 12.4 µM | 26 µM | 16.6 µM | 32.2 µM | 13.6 µM | 39.1 µM | 12.1 µM | 25.3 µM | 15.1 µM | 29.7 µM | 12.1 µM | 26.8 µM
CC1(C)CCC2(C(=O)O)C(O)CC3(C)C(=CCC4C5(C)CCC(OC6OCC(O)C(O)C6OC6OCC(O)C(O)C6OC6OCC(O)C(OC7OC(CO)C(O)C(O)C7O)C6O)C(C)(C)C5CCC43C)C2C1 (stereo not given) |  | > 100 µM |  | > 100 µM |  | > 100 µM |  | 49.7 µM |  | > 100 µM |  | > 100 µM |  | > 100 µM |  | 76.5 µM |  | 43.6 µM |  | 35.3 µM
Nc1nc2c(ncn2C2OC(CO)C(O)C2O)c(=O)o1 (stereo not given) |  | > 100 µM |  | > 100 µM |  | > 100 µM |  | > 100 µM |  | > 100 µM |  | > 100 µM |  | > 100 µM |  | > 100 µM |  | > 100 µM |  | > 100 µM
N#Cc1c(-c2ccccc2)nc(SCC(O)CN2CCOCC2)nc1N1CCOCC1 (stereo not given) | 9.16 µM | > 100 µM | 15.9 µM | > 100 µM | 50 µM | > 100 µM | 37.5 µM | > 100 µM | 15.4 µM | > 100 µM | 19 µM | > 100 µM | 2.42 µM | 7.7 µM | 18.9 µM | > 100 µM | 15 µM | 94.8 µM | 1.54 µM | > 100 µM
N#Cc1ncc(-c2ccc(C(F)(F)F)cc2)c(NC2CCCCCC2)n1 | 8.53 µM | > 100 µM | 9.35 µM | > 100 µM | 38.5 µM | > 100 µM | 6.48 µM | > 100 µM | 14.9 µM | > 100 µM | > 100 µM | > 100 µM | 5.67 µM | > 100 µM | 34.8 µM | > 100 µM | 15.3 µM | > 100 µM | 12 µM | > 100 µM
O=C(O)c1cc(-c2ccc(-c3ccccc3)cc2)nc2cc3ccccc3cc12 |  | > 100 µM |  | > 100 µM |  | > 100 µM |  | > 100 µM |  | > 100 µM |  | > 100 µM |  | > 100 µM |  | > 100 µM |  | > 100 µM |  | > 100 µM
CN(C)Cc1ccc(O)c(CN(C)C)n1 |  | > 100 µM |  | > 100 µM |  | > 100 µM |  | > 100 µM |  | > 100 µM |  | > 100 µM |  | > 100 µM |  | > 100 µM |  | > 100 µM |  | > 100 µM
Cn1cc(Nc2nccc(-c3ccc4c(c3)CN(C3COC3)CC[C@H]4NC(=O)c3cn(C(C)(C)C)nn3)n2)cn1 | > 100 µM | > 100 µM | 33 µM | > 100 µM | 36.6 µM | > 100 µM | > 100 µM | > 100 µM | > 100 µM | > 100 µM | 45.2 µM | > 100 µM | > 100 µM | > 100 µM | 75.3 µM | > 100 µM | > 100 µM | > 100 µM | 53.1 µM | > 100 µM
Cc1ccc(/C=C(/C#N)n2nnc3cccc(F)c32)cc1 | 0.24 µM | 8.69 µM | 0.359 µM | 11.9 µM | 0.287 µM | 22.1 µM | 0.461 µM | 12 µM | 0.227 µM | 0.536 µM | 0.673 µM | 9.12 µM | 0.412 µM | 14.6 µM | 0.485 µM | 12.8 µM | 0.466 µM | 17.4 µM | 0.515 µM | 11.7 µM
O=C(Nc1nc2ccc(OC(F)(F)F)cc2s1)c1ccc(F)cc1 | 3.04 µM | 10.5 µM | 3.88 µM | > 100 µM | 4.4 µM | > 100 µM | 2.9 µM | 8.73 µM | 2.22 µM | 7.2 µM | 3.62 µM | 27.6 µM | 2.81 µM | 8.7 µM | 2.58 µM | 8.21 µM | 3.74 µM | > 100 µM | 3.44 µM | > 100 µM
COc1cc(C(=O)/C=C/c2cccnc2Nc2ccc(Cl)cc2)cc(OC)c1OC | 1.49 µM | 3.48 µM | 1.43 µM | 3.25 µM | 1.75 µM | 3.22 µM | 1.58 µM | 3.24 µM | 1.31 µM | 2.62 µM | 1.74 µM | 3.32 µM | 1.44 µM | 3.33 µM | 1.46 µM | 2.86 µM | 1.52 µM | 2.88 µM | 1.32 µM | 2.7 µM
CCN(CC)Cc1cc(Nc2ccnc3ccc(OC)cc23)ccc1O | 3.56 µM | 34 µM | 1.81 µM | 4.45 µM | 2.88 µM | 10.1 µM | 7.46 µM | 26.5 µM | 3.2 µM | 20.4 µM | 3.95 µM | 28 µM | 4.49 µM | 31.6 µM | 3.57 µM | 20.6 µM | 8.4 µM | > 100 µM | 1.84 µM | 5.96 µM
